In the NIST ThermoML archive (doi:10.1021/je050010l):
± gives the expanded uncertainty stated by the source.

What was measured:
[1] = 100.8 kPa, Liquid; for viscosity: Capillary tube (Ostwald / Ubbelohde) method
[2] = refractive index (Na D-line) (dimensionless); conditions: 101.33 kPa, Liquid, Standard Abbe refractometry
[3] = xn = mol fraction of the nth substance listed; conditions: 100.8 kPa, Liquid; for viscosity: Capillary tube (Ostwald / Ubbelohde) method
[4] = refractive index (Na D-line) (dimensionless); xn = mol fraction of the nth substance listed; conditions: 100.8 kPa, Liquid, Standard Abbe refractometry

| SMILES | mass density ([1]; 288.15 K) [kg/m3] | viscosity ([1]; 288.15 K) [mPa·s] | mass density ([1]; 298.15 K) [kg/m3] | viscosity ([1]; 298.15 K) [mPa·s] | mass density ([1]; 308.15 K) [kg/m3] | viscosity ([1]; 308.15 K) [mPa·s] | refractive index ([2]; 288.15 K) | refractive index ([2]; 298.15 K) | refractive index ([2]; 308.15 K) | viscosity ([3]; 288.15 K, x1 = 1) [mPa·s] | mass density ([3]; 288.15 K, x1 = 1) [kg/m3] | viscosity ([3]; 298.15 K, x1 = 1) [mPa·s] | mass density ([3]; 298.15 K, x1 = 1) [kg/m3] | viscosity ([3]; 308.15 K, x1 = 1) [mPa·s] | mass density ([3]; 308.15 K, x1 = 1) [kg/m3] | refractive index ([4]; 288.15 K, x1 = 1) | refractive index ([4]; 298.15 K, x1 = 1) | refractive index ([4]; 308.15 K, x1 = 1) | also measured |
| --- | --- | --- | --- | --- | --- | --- | --- | --- | --- | --- | --- | --- | --- | --- | --- | --- | --- | --- | --- |
| CC(C)CC(C)(C)C [2,2,4-trimethylpentane] | 695.95 ± 0.31 | 0.537 ± 0.005 | 687.74 ± 0.31 | 0.48 ± 0.004 | 679.41 ± 0.32 | 0.432 ± 0.004 | 1.39404 ± 0.00031 | 1.389 ± 0.00031 | 1.38395 ± 0.00031 |  |  |  |  |  |  |  |  |  |  |
| CC(C)=O [acetone] + CC(C)CC(C)(C)C |  |  |  |  |  |  |  |  |  | 0.334 ± 0.003 | 796.87 ± 0.22 | 0.302 ± 0.003 | 785.47 ± 0.23 | 0.274 ± 0.003 | 773.91 ± 0.24 | 1.36152 ± 0.00031 | 1.35605 ± 0.00031 | 1.35057 ± 0.00031 |  |
| CCO [ethanol] | 793.74 ± 0.23 | 1.309 ± 0.011 | 785.17 ± 0.23 | 1.084 ± 0.009 | 776.49 ± 0.24 | 0.905 ± 0.008 | 1.36342 ± 0.00031 | 1.35924 ± 0.00031 | 1.35502 ± 0.00031 |  |  |  |  |  |  |  |  |  |  |
| CC(C)=O [acetone] | 796.87 ± 0.22 | 0.334 ± 0.003 | 785.47 ± 0.23 | 0.302 ± 0.003 | 773.91 ± 0.24 | 0.274 ± 0.003 | 1.36152 ± 0.00031 | 1.35605 ± 0.00031 | 1.35057 ± 0.00031 |  |  |  |  |  |  |  |  |  |  |
| CCO [ethanol] + CC(C)=O |  |  |  |  |  |  |  |  |  |  |  |  |  |  |  |  |  |  | viscosity ([3]; 288.15 K, x2 = 0): 1.309 ± 0.011 mPa·s; mass density ([3]; 288.15 K, x2 = 0): 793.74 ± 0.23 kg/m3; viscosity ([3]; 298.15 K, x2 = 0): 1.084 ± 0.009 mPa·s; mass density ([3]; 298.15 K, x2 = 0): 785.17 ± 0.23 kg/m3; viscosity ([3]; 308.15 K, x2 = 0): 0.905 ± 0.008 mPa·s; mass density ([3]; 308.15 K, x2 = 0): 776.49 ± 0.24 kg/m3; refractive index ([4]; 288.15 K, x2 = 0): 1.36342 ± 0.00031; refractive index ([4]; 298.15 K, x2 = 0): 1.35924 ± 0.00031; refractive index ([4]; 308.15 K, x2 = 0): 1.35502 ± 0.00031 |
| CCO [ethanol] + CC(C)CC(C)(C)C |  |  |  |  |  |  |  |  |  | 1.309 ± 0.011 | 793.74 ± 0.23 | 1.084 ± 0.009 | 785.17 ± 0.23 | 0.905 ± 0.008 | 776.49 ± 0.24 | 1.36342 ± 0.00031 | 1.35924 ± 0.00031 | 1.35502 ± 0.00031 |  |
